# Values quoted from earlier work as cited in US20220249381A1, “COMPRESSED MACITENTAN COMPOSITIONS, METHODS AND USES THEREOF” (TECNIMEDE - SOCIEDADE TÉCNICO-MEDICINAL, SA, priority 2019, published 2022).
compound,measurement,setting,value
"CCCNS(=O)(=O)Nc1ncnc(OCCOc2ncc(Br)cn2)c1-c1ccc(Br)cc1 [Macitentan, N-[5-(4-Bromophenyl)-6-[2-[(5-bromo-2-pyrimidinyl)oxy]ethoxy]-4-pyrimidinyl]-N′propylsulfamide]",solubility,BCS characterisation,low solubility
same,solubility in organic solvents,methanol and ethanol,only slightly soluble
same,solubility in aqueous solutions,"room temperature, pH 1.2, 4, 6.8, 7, 9",insoluble
